Experimental data published in patent US20050101595A1, “N-containing cycloalkyl-substituted amino-thiazole derivatives and pharmaceutical compositions for inhibiting cell proliferation and methods for their use” (PFIZER INC., priority 2003, published 2005).

Tests used:
HCT-116 cell line = test: Inhibition of cell growth, tetrazolium salt (MTT) assay; assay type: cell-based; settings: HCT-116 cells
Procedure, shortened: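 McCoy's 5A cultures; 4 h pre-incubation; compound dilutions in 0.5% v/v DMSO; 3–5 d, 37° C, 5% CO2; MTT 0.2 mg/mL final, 4 h; formazan dissolved in DMSO, A540; vs 0.5% DMSO vehicle.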

[1] = molecular target: human CDK4 and genetically truncated (1-264) cyclin D3 (Homo sapiens, UniProt P11802); test: Inhibition of CDK4/Cyclin D Retinoblastoma Kinase Activity; assay type: biochemical; settings: at 0.03 μM
Chain of human CDK4 and genetically truncated (1-264) cyclin D3 (P11802 whole entry, the tested form may be a part): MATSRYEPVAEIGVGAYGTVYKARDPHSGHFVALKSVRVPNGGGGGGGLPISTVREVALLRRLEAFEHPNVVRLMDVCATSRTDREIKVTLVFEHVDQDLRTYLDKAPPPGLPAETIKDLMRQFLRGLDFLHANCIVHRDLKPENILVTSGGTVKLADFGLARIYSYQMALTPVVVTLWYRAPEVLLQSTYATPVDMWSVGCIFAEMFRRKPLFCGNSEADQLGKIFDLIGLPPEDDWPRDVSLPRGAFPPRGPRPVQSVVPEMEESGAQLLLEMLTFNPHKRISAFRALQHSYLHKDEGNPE
Chain of human CDK4 and genetically truncated (1-264) cyclin D3 (P30281 1-264 partner): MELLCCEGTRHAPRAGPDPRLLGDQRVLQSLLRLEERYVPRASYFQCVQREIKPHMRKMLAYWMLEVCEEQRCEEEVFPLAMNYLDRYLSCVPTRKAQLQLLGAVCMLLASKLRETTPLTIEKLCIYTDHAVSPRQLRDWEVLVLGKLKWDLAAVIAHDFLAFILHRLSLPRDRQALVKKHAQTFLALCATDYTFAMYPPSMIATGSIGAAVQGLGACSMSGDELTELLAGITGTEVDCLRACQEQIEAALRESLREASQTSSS
Procedure, shortened: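 Apparent Ki values derive from fitting activity at varied inhibitor concentrations to a competitive (or competitive tight-binding) model. Kinase reactions used 5 nM CDK4/cyclin D3(1-264), Rb fragment substrate and 25 μM ATP. Incubation ran 20 min at 30 °C, extended to 60 min under linear conditions for tight binders.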

CDK2/Cyclin A = CDK2/Cyclin A (Homo sapiens, UniProt P24941); test: Inhibition of CDK2/Cyclin A Retinoblastoma Kinase Activity; assay type: biochemical; settings: at 0.03 μM
Procedure, shortened: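 Percent inhibition is calculated against DMSO-only wells after subtracting no-enzyme background. The enzyme is human CDK2 complexed with proteolyzed cyclin A, used at 10 nM or 19 nM on an Rb fragment with 25 μM [32/33P]ATP, at pH 7.4 and 30° C.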

Structure (SMILES)	HCT-116 % Inhibition at 0.1 μM (HCT-116 cell line) [%]	HCT-116 5 Inhibition at 0.25 μM (HCT-116 cell line)	CDK4 % Inhibition at 0.03 μM [1] [%]	CDK2 % Inhibition at 0.03 μM (CDK2/Cyclin A) [%]
Nc1nc(NC2CCN(C(=O)c3cccnc3Sc3ccc(Cl)cc3)CC2)sc1C(=O)c1c(F)cccc1F [Example R43]	4	46	2	−73
Nc1nc(NC2CCN(C(=O)c3cccnc3Oc3ccc(Cl)cc3)CC2)sc1C(=O)c1c(F)cccc1F [Example R44]	0	41	25	16
Cc1ccc(Oc2ncccc2C(=O)N2CCC(Nc3nc(N)c(C(=O)c4c(F)cccc4F)s3)CC2)cc1 [Example R45]	2	36	49	37
Nc1nc(NC2CCN(C(=O)c3ccno3)CC2)sc1C(=O)c1c(F)cccc1F [Example R46]	0.47	37	83	71
Cc1c(S(=O)(=O)c2ccc(Cl)cc2)csc1C(=O)N1CCC(Nc2nc(N)c(C(=O)c3c(F)cccc3F)s2)CC1 [Example R47]	8	45	20	−7
Cc1nn(C)c2ccc(C(=O)N3CCC(Nc4nc(N)c(C(=O)c5c(F)cccc5F)s4)CC3)c(Cl)c12 [Example R48]	0	50	32	16
COc1c(C(=O)N2CCC(Nc3nc(N)c(C(=O)c4c(F)cccc4F)s3)CC2)csc1Cl [Example R49]	0	61	55	34
COc1c(C(=O)N2CCC(Nc3nc(N)c(C(=O)c4c(F)cccc4F)s3)CC2)csc1Br [Example R50]	0	48	44	51
Nc1nc(NC2CCN(C(=O)c3sccc3Cl)CC2)sc1C(=O)c1c(F)cccc1F [Example R51]	0	37	48	62
Nc1nc(NC2CCN(C(=O)c3cnn(-c4ccccc4)c3C(F)(F)F)CC2)sc1C(=O)c1c(F)cccc1F [Example R52]	2	49	23	5
Nc1nc(NC2CCN(C(=O)c3c(F)cc(F)cc3F)CC2)sc1C(=O)c1c(F)cccc1F [Example R53]	0	30	32	24
Nc1nc(NC2CCN(C(=O)C34CC5CC(CC(C5)C3)C4)CC2)sc1C(=O)c1c(F)cccc1F [Example R54]	0	39	38	21
Nc1nc(NC2CCN(C(=O)c3cc(C(F)(F)F)ccc3C(F)(F)F)CC2)sc1C(=O)c1c(F)cccc1F [Example R55]	5	51	37	11
Nc1nc(NC2CCN(C(=O)c3c(Cl)cc(Cl)cc3Cl)CC2)sc1C(=O)c1c(F)cccc1F [Example R56]	0	43	8	14
Nc1nc(NC2CCN(C(=O)c3csc(C4COc5ccccc5O4)n3)CC2)sc1C(=O)c1c(F)cccc1F (centres unmarked) [Example R57]	0	47	36	23
CC(C)(C)c1cc(C(=O)N2CCC(Nc3nc(N)c(C(=O)c4c(F)cccc4F)s3)CC2)n(Cc2ccccc2)n1 [Example R58]	5	44	72	41
Cc1cc(C(=O)N2CCC(Nc3nc(N)c(C(=O)c4c(F)cccc4F)s3)CC2)n(C(C)(C)C)n1 [Example R59]	4	47	25	16
Cn1nc(C(C)(C)C)cc1C(=O)N1CCC(Nc2nc(N)c(C(=O)c3c(F)cccc3F)s2)CC1 [Example R60]	0	29	69	45
COc1ccc(C=CC(=O)N2CCC(Nc3nc(N)c(C(=O)c4c(F)cccc4F)s3)CC2)c(Cl)c1OC [Example R61]	0	37	59	63
CC(C)S(=O)(=O)c1csc(C(=O)N2CCC(Nc3nc(N)c(C(=O)c4c(F)cccc4F)s3)CC2)c1Cl [Example R62]	0	38	78	65
CC(C)S(=O)(=O)c1csc(C(=O)N2CCC(Nc3nc(N)c(C(=O)c4c(F)cccc4F)s3)CC2)c1 [Example R63]	0	38	12	11
Cc1cc(C(=O)N2CCC(Nc3nc(N)c(C(=O)c4c(F)cccc4F)s3)CC2)no1 [Example R64]	0	42	10	9
Cc1ccc(S(=O)(=O)CC(=O)N2CCC(Nc3nc(N)c(C(=O)c4c(F)cccc4F)s3)CC2)cc1 [Example R65]	3	31	24	9
CC(C)(Oc1ccc(Cl)cc1)C(=O)N1CCC(Nc2nc(N)c(C(=O)c3c(F)cccc3F)s2)CC1 [Example R66]	0.54	42	27	16
CC12CCC(C(=O)N3CCC(Nc4nc(N)c(C(=O)c5c(F)cccc5F)s4)CC3)(OC1=O)C2(C)C (centres unmarked) [Example R67]	4	40	22	11
CCn1nc(C)c(Br)c1C(=O)N1CCC(Nc2nc(N)c(C(=O)c3c(F)cccc3F)s2)CC1 [Example R68]	0	33	15	22
Nc1nc(NC2CCN(C(=O)c3ccc(Oc4cc(Cl)cc(Cl)c4)o3)CC2)sc1C(=O)c1c(F)cccc1F [Example R69]	0	41	35	29
Cc1nnsc1C(=O)N1CCC(Nc2nc(N)c(C(=O)c3c(F)cccc3F)s2)CC1 [Example R70]	0	44	12	21
CCCc1c(C(=O)N2CCC(Nc3nc(N)c(C(=O)c4c(F)cccc4F)s3)CC2)cnn1-c1ccccc1 [Example R71]	0	44	51	33
